Experimental data reported in patent publication US9150581B2, “Nicotinic receptor compounds” (priority 2011, dated 2015).

What was measured:
mice [1] = test: Hypothermia (rectal temperature); format: in vivo, mouse; conditions: sc
Experimental: (§1) Interruptions of the photocell beams (two banks of eight cells each) were then recorded for the next 10 min. Data were expressed as number of photocell interruptions. Rectal temperature was measured by a thermistor probe (inserted 24 mm) and digital thermometer (Yellow Springs Instrument Co., Yellow Springs, Ohio). […] The difference in rectal temperature before and after treatment was calculated for each mouse. The ambient temperature of the laboratory varied from 21 to 24° C. from day to day.

mice [2] = test: Spontaneous activity (photocell activity cages); format: in vivo, mouse; conditions: sc
Experimental: as §1

mice [3] = test: Antagonism of nicotine antinociception, tail-flick; format: in vivo, mouse
Experimental: (§2) In the tail-flick method of D'Amour and Smith, (D'Amour, F. E.; Smith, D. L. J. Pharmacol. Exp. Ther. 1941, 72, 74-79), the tail is exposed to a heat lamp and the amount of time taken for the animal to move (flick) its tail away from the heat is recorded. […] Mice were placed into a 10-cm wide glass cylinder on a hot plate (Thermojust Apparatus) maintained at 55.0° C. Two control latencies at least 10 min apart were determined for each mouse. […] The reaction time was scored when the animal jumped or licked its paws. The mice were tested 5 min after subcutaneous (sc) injections of nicotinic ligands for the dose-response determination. Antinociceptive response was calculated as percentage of maximum possible effect (% MPE, where % MPE=[(test−control)/(maximum latency−control)×100]).
(§3) Nicotine was administered at a dose of 2.5 mg/kg, sc (an ED84 dose), and mice were tested 5 min later. ED50 and AD50 values with 95% confidence limits were determined.

mice [4] = test: Tail-flick test (antinociception); format: in vivo, mouse; conditions: sc
Experimental: as §2

mice [5] = test: Hot-plate test (antinociception); format: in vivo, mouse; conditions: sc
Experimental: as §2

mice [6] = test: Antagonism of nicotine antinociception, hot-plate; format: in vivo, mouse; conditions: before nicotine 2.5 mg/kg sc
Experimental: as §2, §3

α7 nAChR = α7 nAChR (Rattus norvegicus (Rat), UniProt Q05941); format: binding; conditions: read-out: α7 [125I]iodoMLA (Ki)
Chain of α7 nAChR (Q05941 23-502 limits assumed): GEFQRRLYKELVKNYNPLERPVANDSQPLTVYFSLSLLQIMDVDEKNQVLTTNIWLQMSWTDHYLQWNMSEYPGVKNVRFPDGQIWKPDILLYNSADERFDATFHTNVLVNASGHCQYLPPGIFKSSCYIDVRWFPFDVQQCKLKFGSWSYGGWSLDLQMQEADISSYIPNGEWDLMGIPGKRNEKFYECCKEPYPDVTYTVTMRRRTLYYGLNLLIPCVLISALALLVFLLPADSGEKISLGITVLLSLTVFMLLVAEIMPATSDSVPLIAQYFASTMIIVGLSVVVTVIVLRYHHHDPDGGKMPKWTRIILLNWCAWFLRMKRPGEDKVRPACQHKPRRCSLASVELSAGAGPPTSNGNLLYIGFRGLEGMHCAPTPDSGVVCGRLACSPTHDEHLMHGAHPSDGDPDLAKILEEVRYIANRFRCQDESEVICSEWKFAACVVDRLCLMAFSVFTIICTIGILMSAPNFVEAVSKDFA

α4β2 nAChR = α4β2 nAChR (Rattus norvegicus (Rat), UniProt P09483+P12390); test: Inhibition of [3H]epibatidine binding at the α4β2 nAChR in male rat cerebral cortex; conditions: read-out: αβ [3H]Epibatidine (Ki)
Chain of α4β2 nAChR (P09483 31-630 limits assumed): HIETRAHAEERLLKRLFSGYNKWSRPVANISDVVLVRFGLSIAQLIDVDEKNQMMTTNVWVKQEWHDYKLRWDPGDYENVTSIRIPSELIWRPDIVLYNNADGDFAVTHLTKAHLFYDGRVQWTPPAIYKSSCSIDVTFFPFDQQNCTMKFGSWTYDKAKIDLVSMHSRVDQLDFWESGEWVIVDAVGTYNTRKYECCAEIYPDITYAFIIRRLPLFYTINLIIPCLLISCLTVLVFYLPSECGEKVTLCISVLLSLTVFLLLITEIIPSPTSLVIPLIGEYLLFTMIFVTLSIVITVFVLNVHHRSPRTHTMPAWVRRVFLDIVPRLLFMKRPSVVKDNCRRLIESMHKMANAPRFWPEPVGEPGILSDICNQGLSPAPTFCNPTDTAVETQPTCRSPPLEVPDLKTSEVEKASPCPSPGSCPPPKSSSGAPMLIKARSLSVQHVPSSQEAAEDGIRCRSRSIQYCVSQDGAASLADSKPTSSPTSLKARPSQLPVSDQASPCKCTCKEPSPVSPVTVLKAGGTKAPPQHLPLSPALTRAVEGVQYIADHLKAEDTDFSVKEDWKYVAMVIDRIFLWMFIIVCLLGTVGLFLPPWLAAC
Chain of α4β2 nAChR (P12390 25-500 limits assumed): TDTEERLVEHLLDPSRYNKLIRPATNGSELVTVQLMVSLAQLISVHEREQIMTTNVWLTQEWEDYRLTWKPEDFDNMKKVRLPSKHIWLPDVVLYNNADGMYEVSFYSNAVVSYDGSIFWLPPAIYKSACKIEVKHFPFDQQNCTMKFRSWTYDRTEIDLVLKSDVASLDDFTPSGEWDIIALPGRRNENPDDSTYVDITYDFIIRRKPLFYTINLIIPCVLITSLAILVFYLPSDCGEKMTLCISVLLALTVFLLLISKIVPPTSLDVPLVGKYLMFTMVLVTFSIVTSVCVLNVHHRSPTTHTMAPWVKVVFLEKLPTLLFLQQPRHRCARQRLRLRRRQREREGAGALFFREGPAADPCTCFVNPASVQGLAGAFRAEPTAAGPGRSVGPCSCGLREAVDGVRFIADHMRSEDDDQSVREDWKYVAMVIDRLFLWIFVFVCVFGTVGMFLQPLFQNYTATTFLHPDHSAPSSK

Substance	ED50 Hypothermia (mice [1])	ED50 Spontaneous Activity (mice [2])	Antagonism Tail-Flick, % at dose (mice [3]; @ 500 μg/kg, before nicotine 2.5 mg/kg sc)	ED50 Tail-Flick (mice [4]; tested 5 min after injection)	ED50 Hot-Plate (mice [5]; tested 5 min after injection)	Antagonism Hot-Plate, % at dose (mice [6]; @ 500 μg/kg)	Ki (α7 nAChR)	Ki (α4β2 nAChR)	AD50 Tail-Flick (mice [3]; mice pretreated sc 10 min before nicotine 2.5 mg/kg sc)	Tail-Flick, % effect at dose (mice [4]; @ 10 mg/kg)	Hot-Plate, % effect at dose (mice [5]; @ 10 mg/kg)	Antagonism Hot-Plate, % at dose (mice [6]; @ 2000 μg/kg)
2-exo-2-Fluoro-3-(3′-benzamide)deschloroepibatidine Hydrochloride [RTI-7527-169]	1.7 mg/kg	1 mg/kg	10% @ 500	5.6 mg/kg	3.6 mg/kg	20% @	870 nM	0.36 ± 0.088 nM				
2-exo-2-Fluoro-3-(4′-benzamide)deschloroepibatidine Hydrochloride [RTI-7527-168]	4.2 mg/kg	3.5 mg/kg					1870 nM	0.12 ± 0.021 nM	0.009 mg/kg	16% @ 10	60% @ 10	1% @
